Patent US10968178B2, “IP6K inhibitors” (TAKEDA PHARMACEUTICAL COMPANY LIMITED, priority 2017, dated 2021)

Experiments:
Type in all cases: biochemical
human IP6K2 = molecular target: T1, human IP6K2 (Homo sapiens, UniProt Q9UHH9); assay: IP6K enzyme inhibitory assay (ADP-Glo Kinase Assay), human IP6K2; details: compound concentration 0.1 μM; for inhibition at 0.1 µM: read-out: ADP-Glo method inhibitory rate (%) human IP6K2
T1 construct: human IP6K2 (1-426) gene; GST; made in house; host or cells: Sf-9 insect cells
T1 sequence (Q9UHH9 1-426): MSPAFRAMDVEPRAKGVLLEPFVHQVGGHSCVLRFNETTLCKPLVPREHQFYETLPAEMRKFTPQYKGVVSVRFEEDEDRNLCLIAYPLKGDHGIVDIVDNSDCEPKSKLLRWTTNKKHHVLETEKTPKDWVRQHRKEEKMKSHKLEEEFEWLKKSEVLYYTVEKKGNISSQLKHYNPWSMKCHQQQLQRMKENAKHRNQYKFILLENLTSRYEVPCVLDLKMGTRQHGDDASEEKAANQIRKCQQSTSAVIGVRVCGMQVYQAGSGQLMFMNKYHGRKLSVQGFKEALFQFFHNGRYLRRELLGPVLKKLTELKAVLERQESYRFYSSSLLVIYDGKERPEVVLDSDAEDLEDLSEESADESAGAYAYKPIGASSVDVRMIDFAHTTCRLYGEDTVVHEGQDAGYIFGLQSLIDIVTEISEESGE
Method in brief: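 The inhibitory activity against human IP6K2 was measured with Promega's ADP-Glo Kinase Assay in 384 well plates. Test compound, diluted in assay buffer (20 mM HEPES (pH 7.5), 6 mM MgCl2, 0.01% Tween-20, 1 mM DTT), was added at 2 μL. Adding 2 μL of diluted enzyme started the reaction, which ran for 60 min at room temperature. Next, 3 μL ADP-Glo solution (30 min) and 6 μL Kinase-Detection solution (60 min) were added, and luminescence was read on an Envision plate reader.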

human IP6K1 = molecular target: T2, human IP6K1 (Homo sapiens, UniProt Q92551); assay: IP6K enzyme inhibitory assay (ADP-Glo Kinase Assay), human IP6K1; details: compound concentration 0.1 μM; for inhibition at 0.1 µM: read-out: ADP-Glo method inhibitory rate (%) human IP6K1
T2 construct: human IP6K1 (1-441) gene; GST; made in house; host or cells: Sf-9 insect cells
T2 sequence (Q92551 whole entry): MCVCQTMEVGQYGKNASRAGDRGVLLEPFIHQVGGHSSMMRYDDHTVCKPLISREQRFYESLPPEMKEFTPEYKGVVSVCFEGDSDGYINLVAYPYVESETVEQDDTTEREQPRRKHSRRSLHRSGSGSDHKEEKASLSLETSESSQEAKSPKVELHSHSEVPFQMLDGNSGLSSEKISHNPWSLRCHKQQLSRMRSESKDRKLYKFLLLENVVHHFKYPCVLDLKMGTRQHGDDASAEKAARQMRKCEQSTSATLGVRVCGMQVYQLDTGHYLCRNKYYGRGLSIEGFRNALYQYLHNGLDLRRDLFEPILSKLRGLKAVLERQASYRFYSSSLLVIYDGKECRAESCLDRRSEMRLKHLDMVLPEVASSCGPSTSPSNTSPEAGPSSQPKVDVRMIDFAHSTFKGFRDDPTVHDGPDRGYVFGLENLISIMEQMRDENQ
Method in brief: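 Inhibition of human IP6K1 was determined with Promega's ADP-Glo Kinase Assay in 384 well plates. Test compound diluted in assay buffer (20 mM HEPES (pH 7.5), 6 mM MgCl2, 0.01% Tween-20, 1 mM DTT) was added at 2 μL, then 2 μL of enzyme started the reaction for 60 min at room temperature. Next came 3 μL ADP-Glo solution for 30 min and 6 μL Kinase-Detection solution for 60 min. Luminescence was read on an Envision plate reader.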

human IP6K3 = molecular target: T3, human IP6K3 (Homo sapiens, UniProt Q96PC2); assay: IP6K enzyme inhibitory assay (ADP-Glo Kinase Assay), human IP6K3; details: compound concentration 0.1 μM; for inhibition at 0.1 µM: read-out: ADP-Glo method inhibitory rate (%) human IP6K3
T3 construct: human IP6K3 (1-410) gene; made in house; host or cells: BL21 (DE3) Escherichia coli
T3 sequence (Q96PC2 1-410): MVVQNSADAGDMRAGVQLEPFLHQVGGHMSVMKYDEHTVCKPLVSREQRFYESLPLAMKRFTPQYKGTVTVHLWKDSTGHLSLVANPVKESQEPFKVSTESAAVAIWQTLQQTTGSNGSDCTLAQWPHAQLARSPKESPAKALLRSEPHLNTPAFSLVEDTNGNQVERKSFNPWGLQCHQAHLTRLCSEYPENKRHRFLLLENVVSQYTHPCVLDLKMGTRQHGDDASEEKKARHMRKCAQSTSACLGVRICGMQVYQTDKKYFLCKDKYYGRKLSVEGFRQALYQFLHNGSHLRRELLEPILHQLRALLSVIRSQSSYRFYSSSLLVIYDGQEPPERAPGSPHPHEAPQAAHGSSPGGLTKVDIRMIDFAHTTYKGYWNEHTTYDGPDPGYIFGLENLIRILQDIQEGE
Method in brief: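 Recombinant human IP6K (IP6K3 residues 1-410, E. coli, Ni-NTA purified) incubated with compound in 20 mM HEPES pH 7.5, 6 mM MgCl2, 0.01% Tween-20, 1 mM DTT for 60 min at room temperature. ADP formed read as luminescence by ADP-Glo.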

inhibition at 0.1 µM (human IP6K2) [%]	inhibition at 0.1 µM (human IP6K1) [%]	inhibition at 0.1 µM (human IP6K3) [%]	ADP-Glo method inhibitory rate (%) human IP6K2 (human IP6K2) [%]	ADP-Glo method inhibitory rate (%) human IP6K1 (human IP6K1) [%]	ADP-Glo method inhibitory rate (%) human IP6K3 (human IP6K3) [%]	Compound
92	97	99	–	–	–	O=C(O)c1ccc2c(c1)[C@]1(CC[C@@H](Oc3cc(F)ccc3F)CC1)C(=O)N2 [Example 56, (1r,4r)-4-(2,5-difluorophenoxy)-2′-oxo-1′,2′-dihydrospiro[cyclohexane-1,3′-indole]-5′-carboxylic acid]
97	99	100	–	–	–	O=C(O)c1ccc2c(c1)[C@]1(CC[C@@H](Oc3ccc(F)cc3F)CC1)C(=O)N2 [Example 57, (1r,4r)-4-(2,4-difluorophenoxy)-2′-oxo-1′,2′-dihydrospiro[cyclohexane-1,3′-indole]-5′-carboxylic acid]
83	72	90	–	–	–	O=C(O)c1ccc2c(c1)[C@]1(CC[C@@H](Oc3cc(F)cc(F)c3)CC1)C(=O)N2 [Example 58, (1r,4r)-4-(3,5-difluorophenoxy)-2′-oxo-1′,2′-dihydrospiro[cyclohexane-1,3′-indole]-5′-carboxylic acid]
86	87	97	–	–	–	O=C(O)c1ccc2c(c1)[C@]1(CC[C@@H](Oc3cccc(F)c3F)CC1)C(=O)N2 [Example 59, (1r,4r)-4-(2,3-difluorophenoxy)-2′-oxo-1′,2′-dihydrospiro[cyclohexane-1,3′-indole]-5′-carboxylic acid]
90	87	98	–	–	–	N#Cc1cccc(O[C@H]2CC[C@@]3(CC2)C(=O)Nc2ccc(C(=O)O)cc23)c1F [Example 60, (1r,4r)-4-(3-cyano-2-fluorophenoxy)-2′-oxo-1′,2′-dihydrospiro[cyclohexane-1,3′-indole]-5′-carboxylic acid]
95	100	100	–	–	–	N#Cc1ccc(O[C@H]2CC[C@@]3(CC2)C(=O)Nc2ccc(C(=O)O)cc23)cc1F [Example 61, (1r,4r)-4-(4-cyano-3-fluorophenoxy)-2′-oxo-1′,2′-dihydrospiro[cyclohexane-1,3′-indole]-5′-carboxylic acid]
91	95	99	–	–	–	N#Cc1cccc(F)c1O[C@H]1CC[C@@]2(CC1)C(=O)Nc1ccc(C(=O)O)cc12 [Example 62, (1r,4r)-4-(2-cyano-6-fluorophenoxy)-2′-oxo-1′,2′-dihydrospiro[cyclohexane-1,3′-indole]-5′-carboxylic acid]
87	69	96	–	–	–	N#Cc1c(F)cccc1O[C@H]1CC[C@@]2(CC1)C(=O)Nc1ccc(C(=O)O)cc12 [Example 63, (1r,4r)-4-(2-cyano-3-fluorophenoxy)-2′-oxo-1′,2′-dihydrospiro[cyclohexane-1,3′-indole]-5′-carboxylic acid]
93	80	94	–	–	–	O=C(O)c1ccc2c(c1)[C@]1(CC[C@@H](Oc3cc(F)cc(Cl)c3)CC1)C(=O)N2 [Example 64, (1r,4r)-4-(3-chloro-5-fluorophenoxy)-2′-oxo-1′,2′-dihydrospiro[cyclohexane-1,3′-indole]-5′-carboxylic acid]
95	93	97	–	–	–	O=C(O)c1ccc2c(c1)[C@]1(CC[C@@H](Oc3cc(F)ccc3Cl)CC1)C(=O)N2 [Example 65, (1r,4r)-4-(2-chloro-5-fluorophenoxy)-2′-oxo-1′,2′-dihydrospiro[cyclohexane-1,3′-indole]-5′-carboxylic acid]

Further lines, the molecule ahead of its results:

Compound	inhibition at 0.1 µM (human IP6K2) [%]	inhibition at 0.1 µM (human IP6K1) [%]	inhibition at 0.1 µM (human IP6K3) [%]	ADP-Glo method inhibitory rate (%) human IP6K2 (human IP6K2) [%]	ADP-Glo method inhibitory rate (%) human IP6K1 (human IP6K1) [%]	ADP-Glo method inhibitory rate (%) human IP6K3 (human IP6K3) [%]
N#Cc1ccc(O[C@H]2CC[C@@]3(CC2)C(=O)Nc2ccc(C(=O)O)cc23)cc1 [Example 45, (1r,4r)-4-(4-cyanophenoxy)-2′-oxo-1′,2′-dihydrospiro[cyclohexane-1,3′-indole]-5′-carboxylic acid]	93	96	97	–	–	–
Cc1ccc(O[C@H]2CC[C@@]3(CC2)C(=O)Nc2ccc(C(=O)O)cc23)cc1C [Example 46, (1r,4r)-4-(3,4-dimethylphenoxy)-2′-oxo-1′,2′-dihydrospiro[cyclohexane-1,3′-indole]-5′-carboxylic acid]	98	97	99	–	–	–
Cc1ccc(O[C@H]2CC[C@@]3(CC2)C(=O)Nc2ccc(C(=O)O)cc23)c(C)c1 [Example 47, (1r,4r)-4-(2,4-dimethylphenoxy)-2′-oxo-1′,2′-dihydrospiro[cyclohexane-1,3′-indole]-5′-carboxylic acid]	–	–	–	96	99	99
Cc1cc(C)cc(O[C@H]2CC[C@@]3(CC2)C(=O)Nc2ccc(C(=O)O)cc23)c1 [Example 48, (1r,4r)-4-(3,5-dimethylphenoxy)-2′-oxo-1′,2′-dihydrospiro[cyclohexane-1,3′-indole]-5′-carboxylic acid]	91	86	97	–	–	–
COc1ccc(O[C@H]2CC[C@@]3(CC2)C(=O)Nc2ccc(C(=O)O)cc23)cc1 [Example 49, (1r,4r)-4-(4-methoxyphenxoy)-2′-oxo-1′,2′-dihydrospiro[cyclohexane-1,3′-indole]-5′-carboxylic acid]	99	100	100	–	–	–
Cc1cc(F)ccc1O[C@H]1CC[C@@]2(CC1)C(=O)Nc1ccc(C(=O)O)cc12 [Example 50, (1r,4r)-4-(4-fluoro-2-methylphenoxy)-2′-oxo-1′,2′-dihydrospiro[cyclohexane-1,3′-indole]-5′-carboxylic acid]	100	101	96	–	–	–
Cc1cc(O[C@H]2CC[C@@]3(CC2)C(=O)Nc2ccc(C(=O)O)cc23)ccc1F [Example 51, (1r,4r)-4-(4-fluoro-3-methylphenoxy)-2′-oxo-1′,2′-dihydrospiro[cyclohexane-1,3′-indole]-5′-carboxylic acid]	97	98	96	–	–	–
Cc1ccc(O[C@H]2CC[C@@]3(CC2)C(=O)Nc2ccc(C(=O)O)cc23)cc1F [Example 52, (1r,4r)-4-(3-fluoro-4-methylphenoxy)-2′-oxo-1′,2′-dihydrospiro[cyclohexane-1,3′-indole]-5′-carboxylic acid]	100	99	96	–	–	–
Cc1cccc(O[C@H]2CC[C@@]3(CC2)C(=O)Nc2ccc(C(=O)O)cc23)c1F [Example 53, (1r,4r)-4-(2-fluoro-3-methylphenoxy)-2′-oxo-1′,2′-dihydrospiro[cyclohexane-1,3′-indole]-5′-carboxylic acid]	96	96	97	–	–	–
Cc1ccc(O[C@H]2CC[C@@]3(CC2)C(=O)Nc2ccc(C(=O)O)cc23)c(F)c1 [Example 54, (1r,4r)-4-(2-fluoro-4-methylphenoxy)-2′-oxo-1′,2′-dihydrospiro[cyclohexane-1,3′-indole]-5′-carboxylic acid]	100	99	101	–	–	–
O=C(O)c1ccc2c(c1)[C@]1(CC[C@@H](Oc3ccc(F)c(F)c3)CC1)C(=O)N2 [Example 55, (1r,4r)-4-(3,4-difluorophenoxy)-2′-oxo-1′,2′-dihydrospiro[cyclohexane-1,3′-indole]-5′-carboxylic acid]	95	96	99	–	–	–
